Here are results for 1 molecule from paper PMC6934184, “Selective DNA-PKcs inhibition extends the therapeutic index of localized radiotherapy and chemotherapy” (The Journal of Clinical Investigation, 2019).

In this assay the target is T1, FGFR2 (Homo sapiens, UniProt P21802).
T1 construct: purchased Thermo Fisher Scientific (Life Technologies) SelectScreen
As to the kind of experiment: SelectScreen Z'LYTE. In kind it is biochemical. The essentials: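 Percent values come from Thermo SelectScreen profiling of NU5455, combining activity and binding assays. CSF1R was run in Z'LYTE format at Km app ATP, and CAMK1 in Adapta format with ATP listed at 10.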

Each structure is given as a SMILES string.

T1 sequence (P21802 22-821): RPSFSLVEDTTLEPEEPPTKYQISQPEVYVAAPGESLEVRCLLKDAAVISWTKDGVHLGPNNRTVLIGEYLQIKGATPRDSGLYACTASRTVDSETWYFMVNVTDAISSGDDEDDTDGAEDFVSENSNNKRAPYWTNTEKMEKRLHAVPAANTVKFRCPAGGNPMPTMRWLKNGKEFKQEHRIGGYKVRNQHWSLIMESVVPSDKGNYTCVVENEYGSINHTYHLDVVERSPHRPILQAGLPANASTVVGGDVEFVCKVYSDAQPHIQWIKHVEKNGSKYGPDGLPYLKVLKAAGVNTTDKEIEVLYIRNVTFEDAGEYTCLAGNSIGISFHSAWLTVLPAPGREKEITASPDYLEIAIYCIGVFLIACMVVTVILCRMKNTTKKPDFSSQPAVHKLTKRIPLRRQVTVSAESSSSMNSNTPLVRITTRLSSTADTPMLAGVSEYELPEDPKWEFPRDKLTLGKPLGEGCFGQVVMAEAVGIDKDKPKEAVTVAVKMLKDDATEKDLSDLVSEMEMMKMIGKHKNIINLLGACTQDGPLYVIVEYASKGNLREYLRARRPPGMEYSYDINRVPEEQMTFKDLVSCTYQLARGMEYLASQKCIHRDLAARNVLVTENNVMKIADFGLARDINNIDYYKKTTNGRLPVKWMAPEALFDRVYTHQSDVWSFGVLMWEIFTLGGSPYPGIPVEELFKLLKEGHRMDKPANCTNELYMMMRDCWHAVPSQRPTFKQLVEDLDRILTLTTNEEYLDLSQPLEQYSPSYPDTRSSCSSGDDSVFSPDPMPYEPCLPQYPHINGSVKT

The molecule `CN(C(=O)CN1CCOCC1)c1ccc2sc3c(-c4cccc5c(=O)cc(N6CC7CCC(C6)O7)oc45)cccc3c2c1` [NU5455] came in with an inhibition at 1 µM of 0%.
